Measured values published in PMC9758846, “Dinuclear and mononuclear metal(II) polypyridyl complexes against drug-sensitive and drug-resistant Plasmodium falciparum and their mode of action” (Malaria Journal, 2022).
Structures can show the parent of a compound that is named as a salt. Where two headings read alike, the source gives them in different places.

How the values were obtained:
[1] = PNDA assay of •OH radicals from reaction with H2O2; conditions: equimolar test compound with excess H2O2
Description: A previously reported spectrometric assay using PNDA was used to quantify the amount of reactive oxygen species (ROS), viz. •OH radicals, produced by the reaction of metal(II) complexes with hydrogen peroxide in borate buffer at pH 7.5 [24–26]. The percentage of PNDA bleaching and the concentration of •OH produced were determined.

[2] = test system: Plasmodium falciparum 3D7 (Pf3D7); assay: In vitro anti-malarial activity using SYBR Green I nucleic acid dye; type: cell-based; conditions: Plasmodium falciparum, read-out: IC50 of Pf3D7
Description: (§1) The drug-sensitive strain of P. falciparum 3D7 (Pf3D7) was obtained from the Department of Science, Monash University, Malaysia and cultured as previously described. The artemisinin-resistant strain of P. falciparum IPC5202 (Pf5202) was obtained from BEI Resources and cultured as mentioned in the product sheet. Both strains were maintained in sealed flask at 37 °C in a humidified atmosphere of 5% O2, 5% CO2 and 90% N2. All buffer stock solutions for biological assays were autoclaved at 121 °C for 15 min.
(§2) Previously reported anti-malarial assay was used with slight modification using 1% parasitaemia (ring-stage) and 5% haematocrit treated with test compounds at increasing concentration and incubated for 72 h at 37 °C [21–23]. After the incubation, the assay was terminated by freeze/thaw cycle (− 80 °C overnight before thawing for 2 h) before the addition of lysis buffer containing SYBR Green I dye into each well and mixed thoroughly using the belly dancer for 30 min in the dark. Chloroquine diphosphate salt and artemisinin were used as standard drugs. The fluorescence signal was quantified at 485 nm excitation wavelength and 528 nm emission wavelength. IC50 values of each test compound was determined from a dose response curve by non-linear regression analysis.

[3] = test system: Plasmodium falciparum IPC5202 (Pf5202); assay: as above; type: cell-based; conditions: for IC50: Plasmodium falciparum, read-out: IC50 of Pf5202; for Drop in efficacy/potency towards Pf5202 relative to Pf3D7: ratio of IC50 values
Description: as §1, §2

Pf5202 = assay: Intracellular ROS level using DCFH-DA; type: cell-based, Plasmodium falciparum; conditions: positive control
Description: (§3) After incubation, packed cells were washed with phosphate buffer saline (PBS) solution. […] The data was expressed as fold change between amount of ROS produced by treated P. falciparum against untreated P. falciparum. Normalization was done with the percentage of parasite viability obtained at each condition. Hydrogen peroxide was used as positive control.

Pf3D7 = assay: Intracellular ROS level using DCFH-DA; type: cell-based, Plasmodium falciparum; conditions: positive control
Description: as §3

Q: Which “Generation of ·OH radicals (in words)” value [1] does the source give for `c1cc(-c2ccncc2)ccn1` [4,4′-bipy, 4,4′-bipyridine] here?
A: The value was “did not generate any ·OH radicals”.

Q: What about the IC50 ([2]; 3D7, 72 h incubation) of the same compound?
A: The IC50 was > 100 µM.

Q: And the IC50 ([3]; 72 h incubation)?
A: Its IC50 is > 100 µM.

Q: What does the source list for `C[C@@H]1CC[C@H]2[C@@H](C)C(=O)O[C@@H]3O[C@@]4(C)CC[C@@H]1[C@]32OO4` [ART, Artemisinin]?
A: IC50 ([2]; 3D7, 72 h incubation): 0.04 ± 0.01 µM; IC50 ([3]; 72 h incubation): > 100 µM; Drop in efficacy/potency towards Pf5202 relative to Pf3D7 [3]: more than 3000 ×

Q: What does the source list for `CCN(CC)CCCC(C)Nc1ccnc2cc(Cl)ccc12` (stereo not drawn) [CQ, Chloroquine diphosphate salt]?
A: IC50 ([2]; 3D7, 72 h): 0.03 ± 0.01 µM; IC50 ([3]; 72 h): > 100 µM; Drop in efficacy/potency towards Pf5202 relative to Pf3D7 [3]: more than 3000 ×

Q: For `OO` [Complex H2O2, Hydrogen peroxide, reference compound], which “fold change in ROS” value (Pf5202; 24 h, 8 µM) is on record?
A: Its value is 1.10 ± 0.04 fold.

Q: And the “fold change in ROS” value (Pf5202; 24 h, 40 µM)?
A: Its value is 1.16 ± 0.13 fold.

Q: And the “fold change in ROS” value (Pf5202; 24 h, 200 µM)?
A: The value was 1.08 ± 0.18 fold.

Q: What about the “fold change in ROS” value (Pf5202; 24 h, 1000 µM) of the same compound?
A: Its value is 1.15 ± 0.22 fold.

Q: What about the “fold change in ROS” value (Pf5202; 48 h, 8 µM) of the same compound?
A: Its value is 1.78 ± 0.16 fold.

Q: And the “fold change in ROS” value (Pf5202; 48 h, 40 µM)?
A: Its value is 1.54 ± 0.28 fold.

Q: What about the “fold change in ROS” value (Pf5202; 48 h, 200 µM) of the same compound?
A: The value was 1.41 ± 0.16 fold.

Q: What about the “fold change in ROS” value (Pf5202; 48 h, 1000 µM) of the same compound?
A: Its value is 1.68 ± 0.28 fold.

Q: And the “fold change in ROS” value (Pf5202; 72 h, 8 µM)?
A: The value was 1.82 ± 0.15 fold.

Q: What about the “fold change in ROS” value (Pf5202; 72 h, 40 µM) of the same compound?
A: Its value is 1.17 ± 0.36 fold.

Q: And the “fold change in ROS” value (Pf5202; 72 h, 200 µM)?
A: The value was 2.06 ± 0.25 fold.

Q: And the “fold change in ROS” value (Pf5202; 72 h, 1000 µM)?
A: Its value is 3.71 ± 0.14 fold.

Q: And the “fold change in ROS” value (Pf3D7; 24 h, 8 µM)?
A: Its value is 0.90 ± 0.37 fold.

Q: And the “fold change in ROS” value (Pf3D7; 24 h, 40 µM)?
A: The value was 1.34 ± 0.67 fold.

Q: What about the “fold change in ROS” value (Pf3D7; 24 h, 200 µM) of the same compound?
A: The value was 1.28 ± 0.62 fold.

Q: And the “fold change in ROS” value (Pf3D7; 24 h, 1000 µM)?
A: Its value is 1.77 ± 0.85 fold.

Q: And the “fold change in ROS” value (Pf3D7; 48 h, 8 µM)?
A: Its value is 2.97 ± 0.57 fold.

Q: What about the “fold change in ROS” value (Pf3D7; 48 h, 40 µM) of the same compound?
A: Its value is 3.55 ± 0.9 fold.

Q: And the “fold change in ROS” value (Pf3D7; 48 h, 200 µM)?
A: The value was 4.61 ± 0.15 fold.

Q: What about the “fold change in ROS” value (Pf3D7; 48 h, 1000 µM) of the same compound?
A: The value was 5.75 ± 0.76 fold.

Q: What about the “fold change in ROS” value (Pf3D7; 72 h, 8 µM) of the same compound?
A: The value was 0.25 ± 0.08 fold.

Q: What about the “fold change in ROS” value (Pf3D7; 72 h, 40 µM) of the same compound?
A: The value was 0.34 ± 0.12 fold.

Q: What about the “fold change in ROS” value (Pf3D7; 72 h, 200 µM) of the same compound?
A: Its value is 0.49 ± 0.22 fold.

Q: What about the “fold change in ROS” value (Pf3D7; 72 h, 1000 µM) of the same compound?
A: The value was 1.00 ± 0.06 fold.
